Blank lines part the entries; values can stand above or below the compound they belong to.
What was measured:
UMUC5 = assay: 10-day proliferation (CTG), equimolar Compound A + Compound B (Example 1); type: cell-based; settings: 240 h, 10 days, single agent or 1:1 combo; for IC30: read-out: gIC30; for IC40: read-out: gIC40; for IC50: read-out: gIC50; for IC60: read-out: gIC60; for IC70: read-out: gIC70; for IC80: read-out: gIC80; for IC90: read-out: gIC90; for IC100: read-out: gIC100
Method: (§1) A 10-day proliferation assay was performed in a panel of 5 MTAP-deficient and 2 wild type non-small cell lung and bladder cancer cell lines. Optimal cell seeding for all cell lines was determined by assessing the growth over a range of seeding densities in a 384-well format to identify conditions that permitted proliferation for 10 days. Cells were then plated at the optimal seeding density and treated with 20-point, two-fold dilution series of Compound A, sovilnesib (“Compound B”), or an equimolar combination of Compound A and Compound B. Concentrations tested for Compound A and Compound B alone or in combination ranged from 0.038 nM to 20,000 nM. A plate of cells was harvested at the time of compound addition to quantify the number of cells at the start of the combination (T0). For cell quantification, the harvested cells were lysed with Promega CellTiter-Glo (CTG) reagent according to the manufacturer's protocol and the chemiluminescent signal was detected on a Synergy Neo plate reader. CTG estimates cell number through detection of cellular ATP levels. Cells were incubated with the drug combinations at 37° C. with 5% CO2 for 10 days. Cells were then lysed with CTG and the chemiluminescent signal was measured.
(§2) CTG values obtained after the 10-day treatment were background subtracted and expressed as a percent of the T0 value. Data were plotted against compound concentration and fit with a four-parameter equation to generate dose response curves for each single agent and the equimolar combination. Growth ICx (gICx) values ranging from gIC30 to gIC100 were interpolated from the fitted curves. Synergistic growth inhibition was assessed by determination of Combination Index (CI) values at these various points across the titration using the mutually non-exclusive equation [Chou, 1983; Chou, 1981] shown below where A equals the gIC value of Compound A, B equals the gICx value of Compound B, and A+B or B+A equals the gICx value of the equimolar combination. A Combination Index value less than 1.0 was considered synergistic.
(§3) Synergy was measured for equimolar combinations of Compound A and Compound B utilizing the mutually non-exclusive Combination Index equation across gICx values ranging from gIC30-gIC100. Combination Index values are shown for: NCI-H838 (3A), SW900 (3B), RT112/84 (3C), UMUC5 (3D), and UMUC11 (3E).

UMUC11 = assay: as above; type: cell-based; settings: 240 h, 10 days, single agent or 1:1 combo; for IC30: read-out: gIC30; for IC40: read-out: gIC40; for IC50: read-out: gIC50; for IC60: read-out: gIC60; for IC70: read-out: gIC70; for IC80: read-out: gIC80; for IC90: read-out: gIC90; for IC100: read-out: gIC100
Method: as §1, §2, §3

SW900 = assay: as above; type: cell-based; settings: Homo sapiens, SW900, 240 h, 10 days, single agent or 1:1 combo; for IC30: read-out: gIC30; for IC40: read-out: gIC40; for IC50: read-out: gIC50; for IC60: read-out: gIC60; for IC70: read-out: gIC70; for IC80: read-out: gIC80; for IC90: read-out: gIC90; for IC100: read-out: gIC100
Method: as §1, §2, §3

NCI-H838 = assay: as above; type: cell-based; settings: Homo sapiens, NCI-H838, 240 h, 10 days, single agent or 1:1 combo; for IC30: read-out: gIC30; for IC40: read-out: gIC40; for IC50: read-out: gIC50; for IC60: read-out: gIC60; for IC70: read-out: gIC70; for IC80: read-out: gIC80; for IC90: read-out: gIC90; for IC100: read-out: gIC100
Method: as §1, §2, §3

RT112/84 = assay: as above; type: cell-based; settings: Homo sapiens, RT112/84, 240 h, 10 days, single agent or 1:1 combo; for IC30: read-out: gIC30; for IC40: read-out: gIC40; for IC50: read-out: gIC50; for IC60: read-out: gIC60; for IC70: read-out: gIC70; for IC80: read-out: gIC80; for IC90: read-out: gIC90; for IC100: read-out: gIC100
Method: as §1, §2, §3

[1] = system: LMSU (RCB1062) human gastric tumor cell-derived xenograft (CDX) models; assay: Anti-tumor activity in LMSU gastric mouse xenograft (CDX) model (Example 9); type: in vivo; settings: Compound A 10 mg/kg oral once per day
Method: All mouse studies were approved by the Institutional Animal Care and Use Committee (IACUC) based on guidelines from the National Institutes of Health (NIH). Mice were maintained under pathogen-free conditions, and food and water were provided ad libitum.
The anti-tumor effect of Compound A and irinotecan hydrochloride as single-agents or in combination was assessed in the LMSU (RCB1062) human gastric tumor cell-derived xenograft (CDX) models. LMSU was expanded in HamF10 with 10% fetal bovine serum. Cells were free of mycoplasma and authenticated by STR profiling, and ten million cells in log growth phase were resuspended in Hanks Balanced Salt Solution containing 50% Matrigel and implanted subcutaneously into the flank of each recipient female Crl:NU-Foxn1nu mouse. Mice were housed in microisolator cages with corn cob bedding with additional enrichment consisting of sterile nesting material (Innovive) and Bio-huts (Bio-Serv). Water (Innovive) and diet (Teklad Global 19% Protein Extruded Diet 2919, Irradiated) were provided ad libitum. The environment was maintained on a 12-hour light cycle at approximately 68-72° F. and 40-60% relative humidity.
Tumor Volume (TV) was calculated using the following formula: TV (mm^3)=(width×width×length)/2. Tumor growth inhibition (TGI) was calculated by [(TV controlfinal−TV treatedfinal)/(TV controlfinal−TV controlinitial)×100]. TV was analyzed for statistical significance utilizing GraphPad Prism version 10.2.2. Repeated Measures 2-Way ANOVA with Dunnet's Multiple Comparisons was utilized, and P-values were derived from data collected on the date of Vehicle group termination and were considered statistically significant if less than 0.05.
Mean tumor volume at dosing start was approximately 185 mm^3, with seven mice randomized to each treatment group. Mice were dosed orally, once per day, with Vehicle, Compound A at 10 mg/kg, or dosed for 3 consecutive days followed by 4 days holiday by intraperitoneal (IP) injection of Compound B at 5 mg/kg or 10 mg/kg, or combination of Compound A and Compound B. The vehicle group was a combination of Vehicle A (for Compound A, 0.5% 400 cps methylcellulose with 0.5% Tween-80 in sterile water) and Vehicle B (for irinotecan hydrochloride, Saline).

IC50 (SW900): 12.3 µM | IC90 (SW900): 20 µM | IC50 (NCI-H838): 12.5 µM | IC90 (NCI-H838): 20 µM
Structure (SMILES): Cc1cc(NC(=O)c2ccc(NS(=O)(=O)CCO)cc2N2CCC3(CC2)CC3)nc(N2CCC(F)(F)CC2)n1 [Compound B, N-(2-(4,4-difluoropiperidin-1-yl)-6-methylpyrimidin-4-yl)-4-((2-hydroxyethyl)sulfonamido)-2-(6-azaspiro[2.5]octan-6-yl)benzamide]
IC30 (UMUC5): 0.17 µM | IC40 (UMUC5): 0.194 µM | IC50 (UMUC5): 221 nM | IC60 (UMUC5): 0.253 µM | IC70 (UMUC5): 0.296 µM | IC80 (UMUC5): 0.37 µM | IC90 (UMUC5): 0.662 µM | IC100 (UMUC5): 20 µM | IC30 (UMUC11): 2.2 µM | IC40 (UMUC11): 3.48 µM | IC50 (UMUC11): 5.17 µM | IC60 (UMUC11): 7.3 µM | IC70 (UMUC11): 9.95 µM | IC80 (UMUC11): 13.2 µM | IC90 (UMUC11): 17.1 µM | IC100 (UMUC11): 20 µM | IC30 (SW900): 5.48 µM | IC40 (SW900): 8.55 µM | IC60 (SW900): 16.6 µM | IC70 (SW900): 19.9 µM | IC80 (SW900): 20 µM | IC100 (SW900): 20 µM | IC30 (NCI-H838): 0.735 µM | IC40 (NCI-H838): 1.48 µM | IC60 (NCI-H838): 14.3 µM | IC70 (NCI-H838): 17 µM | IC80 (NCI-H838): 20 µM | IC100 (NCI-H838): 20 µM | IC30 (RT112/84): 0.15 µM | IC40 (RT112/84): 0.17 µM | IC50 (RT112/84): 192 nM | IC60 (RT112/84): 0.222 µM | IC70 (RT112/84): 0.273 µM | IC80 (RT112/84): 10.3 µM | IC90 (RT112/84): 20 µM | IC100 (RT112/84): 20 µM

IC50 (SW900): 20 µM | IC90 (SW900): 20 µM | IC50 (NCI-H838): 0.208 µM | IC90 (NCI-H838): 20 µM
Structure (SMILES): Nc1nc(=O)n(-c2ccccc2Cl)c2nc(C(F)(F)F)ccc12 [Compound A]
IC30 (UMUC5): 0.357 µM | IC40 (UMUC5): 1.35 µM | IC50 (UMUC5): 5160 nM | IC60 (UMUC5): 19.4 µM | IC70 (UMUC5): 20 µM | IC80 (UMUC5): 20 µM | IC90 (UMUC5): 20 µM | IC100 (UMUC5): 20 µM | IC30 (UMUC11): 20 µM | IC40 (UMUC11): 20 µM | IC50 (UMUC11): 20 µM | IC60 (UMUC11): 20 µM | IC70 (UMUC11): 20 µM | IC80 (UMUC11): 20 µM | IC90 (UMUC11): 20 µM | IC100 (UMUC11): 20 µM | IC30 (SW900): 20 µM | IC40 (SW900): 20 µM | IC60 (SW900): 20 µM | IC70 (SW900): 20 µM | IC80 (SW900): 20 µM | IC100 (SW900): 20 µM | IC30 (NCI-H838): 0.052 µM | IC40 (NCI-H838): 0.09 µM | IC60 (NCI-H838): 20 µM | IC70 (NCI-H838): 20 µM | IC80 (NCI-H838): 20 µM | IC100 (NCI-H838): 20 µM | IC30 (RT112/84): 0.277 µM | IC40 (RT112/84): 0.854 µM | IC50 (RT112/84): 3000 nM | IC60 (RT112/84): 16 µM | IC70 (RT112/84): 20 µM | IC80 (RT112/84): 20 µM | IC90 (RT112/84): 20 µM | IC100 (RT112/84): 20 µM | Day 11 TGI [1]: −6% | TGI [1]: no significant TGI | Tumor Regression Rate on Day 11 [1]: 0% | Day 11 TV (mean) ([1]; initial TV 186, vehicle 1018): 1069 mm^3

— patent publication US20260294915A1, “COMBINATION THERAPY COMPRISING A MAT2A INHIBITOR AND A TOPOISOMERASE INHIBITOR, A SPLICING INHIBITOR SULFONAMIDE, OR A KIF18 INHIBITOR” (IDEAYA BIOSCIENCES, INC., priority 2023, published 2026)
